Laboratory results taken from ChEMBL document CHEMBL4330176, “Imidazoquinolines as Novel Inhibitors of LRRK2 Kinase Activity” (ACS Med Chem Lett, 2019).

Columns and labels:
[1] = target: Leucine-rich repeat serine/threonine-protein kinase 2 (Homo sapiens, UniProt Q5S007, G2019S); assay: Inhibition of GST-tagged LRRK2 G2019S mutant (unknown origin) expressed in baculovirus expression system using fluorescein-labeled LRRKtide as substrate after 30 mins by Lanthascreen assay
[2] = target: Leucine-rich repeat serine/threonine-protein kinase 2 (Homo sapiens, UniProt Q5S007); assay: Inhibition of recombinant wild-type GST-tagged LRRK2 (unknown origin) expressed in baculovirus expression system using fluorescein-labeled LRRKtide as substrate after 30 mins by Lanthascreen assay
Chain of Leucine-rich repeat serine/threonine-protein kinase 2 (Homo sapiens, UniProt Q5S007) (Q5S007 whole entry): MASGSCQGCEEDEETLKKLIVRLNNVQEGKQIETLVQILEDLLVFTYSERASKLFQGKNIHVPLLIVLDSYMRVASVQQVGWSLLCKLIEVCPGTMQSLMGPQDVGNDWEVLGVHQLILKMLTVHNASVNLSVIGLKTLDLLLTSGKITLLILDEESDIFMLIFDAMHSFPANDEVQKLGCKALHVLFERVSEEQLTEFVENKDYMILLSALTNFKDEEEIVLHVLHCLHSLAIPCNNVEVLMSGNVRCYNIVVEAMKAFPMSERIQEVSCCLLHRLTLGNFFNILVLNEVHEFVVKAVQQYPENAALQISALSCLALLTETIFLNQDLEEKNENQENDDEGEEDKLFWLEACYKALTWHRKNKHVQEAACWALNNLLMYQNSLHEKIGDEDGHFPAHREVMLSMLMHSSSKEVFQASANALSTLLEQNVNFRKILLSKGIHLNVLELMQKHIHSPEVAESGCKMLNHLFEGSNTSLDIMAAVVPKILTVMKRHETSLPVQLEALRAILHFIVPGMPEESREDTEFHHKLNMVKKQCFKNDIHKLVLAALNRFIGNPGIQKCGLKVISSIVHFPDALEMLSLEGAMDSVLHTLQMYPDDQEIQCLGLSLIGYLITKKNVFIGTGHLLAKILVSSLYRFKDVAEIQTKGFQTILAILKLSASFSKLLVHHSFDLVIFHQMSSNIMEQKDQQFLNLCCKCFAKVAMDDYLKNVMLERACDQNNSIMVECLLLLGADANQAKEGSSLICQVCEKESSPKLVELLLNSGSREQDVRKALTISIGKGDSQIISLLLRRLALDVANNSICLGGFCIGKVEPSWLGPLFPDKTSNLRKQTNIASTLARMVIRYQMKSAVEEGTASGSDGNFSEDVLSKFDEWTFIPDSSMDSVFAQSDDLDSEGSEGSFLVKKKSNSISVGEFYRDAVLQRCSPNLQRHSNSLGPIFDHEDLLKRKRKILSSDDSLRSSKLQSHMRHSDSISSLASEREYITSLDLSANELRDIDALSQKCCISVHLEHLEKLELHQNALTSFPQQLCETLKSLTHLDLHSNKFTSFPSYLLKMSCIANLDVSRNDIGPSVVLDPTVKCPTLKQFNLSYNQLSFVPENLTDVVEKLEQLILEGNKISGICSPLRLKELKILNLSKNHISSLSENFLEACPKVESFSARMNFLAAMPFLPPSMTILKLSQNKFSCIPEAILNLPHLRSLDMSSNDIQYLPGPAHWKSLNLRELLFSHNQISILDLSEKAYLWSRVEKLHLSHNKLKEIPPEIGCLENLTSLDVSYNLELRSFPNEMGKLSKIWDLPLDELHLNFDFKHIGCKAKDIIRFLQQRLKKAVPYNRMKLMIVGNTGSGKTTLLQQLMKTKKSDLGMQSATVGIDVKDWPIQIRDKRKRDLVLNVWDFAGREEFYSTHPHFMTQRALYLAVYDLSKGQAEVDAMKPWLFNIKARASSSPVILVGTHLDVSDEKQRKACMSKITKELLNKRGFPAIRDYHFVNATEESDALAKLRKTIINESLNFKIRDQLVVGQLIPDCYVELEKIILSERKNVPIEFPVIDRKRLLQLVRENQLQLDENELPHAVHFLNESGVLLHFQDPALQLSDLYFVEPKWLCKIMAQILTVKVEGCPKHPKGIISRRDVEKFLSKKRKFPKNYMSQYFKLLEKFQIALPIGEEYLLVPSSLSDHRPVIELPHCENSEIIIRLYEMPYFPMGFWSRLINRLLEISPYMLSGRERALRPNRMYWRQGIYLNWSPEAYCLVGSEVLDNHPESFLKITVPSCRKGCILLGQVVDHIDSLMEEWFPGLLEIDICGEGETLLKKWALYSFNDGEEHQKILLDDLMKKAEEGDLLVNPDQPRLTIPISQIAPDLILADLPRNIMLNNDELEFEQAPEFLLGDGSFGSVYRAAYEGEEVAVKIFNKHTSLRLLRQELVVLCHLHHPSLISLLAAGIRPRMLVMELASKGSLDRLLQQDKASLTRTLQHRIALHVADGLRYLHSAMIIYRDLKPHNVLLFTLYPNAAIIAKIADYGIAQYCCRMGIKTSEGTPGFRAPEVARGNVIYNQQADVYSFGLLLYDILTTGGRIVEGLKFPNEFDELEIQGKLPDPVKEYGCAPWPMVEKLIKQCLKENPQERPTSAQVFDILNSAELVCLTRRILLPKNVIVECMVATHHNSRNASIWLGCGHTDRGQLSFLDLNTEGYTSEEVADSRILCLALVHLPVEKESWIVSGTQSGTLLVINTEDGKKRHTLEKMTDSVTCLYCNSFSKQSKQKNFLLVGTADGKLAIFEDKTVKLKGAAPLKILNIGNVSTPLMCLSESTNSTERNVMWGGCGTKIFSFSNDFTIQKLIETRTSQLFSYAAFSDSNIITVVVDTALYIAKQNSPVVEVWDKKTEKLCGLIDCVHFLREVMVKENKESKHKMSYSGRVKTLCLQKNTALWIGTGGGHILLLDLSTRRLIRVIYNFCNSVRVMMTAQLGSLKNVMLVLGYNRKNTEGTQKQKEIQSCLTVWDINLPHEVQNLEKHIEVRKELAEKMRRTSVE

Chain of Leucine-rich repeat serine/threonine-protein kinase 2 (Homo sapiens, UniProt Q5S007, G2019S) (Q5S007 whole entry G2019S): as the sequence (Q5S007 whole entry) above, with G2019S counted along it

SMILES | IC50 [1] [nM] | IC50 [2] [nM]
[2H]C([2H])([2H])c1cnc(Cc2nc3cnc4ccc(Cl)cc4c3n2[C@@H]2CCO[C@H](C)C2)cn1 | 2.16 | –
Cc1nc(Cc2nc3cnc4ccc(C(F)(F)F)cc4c3n2[C@@H]2CCOCC2(F)F)no1 | 26.5 | 25.7
CCc1nc2cnc3ccc(Cl)cc3c2n1[C@@H]1CCO[C@H](CC#N)C1 | 8.7 | –
N#Cc1ccc2ncc3nc(Cc4csnn4)n([C@@H]4CC[C@H](F)C4)c3c2c1 (relative stereo) | 9.75 | 9.73
